Experiments:
[1] = Plasma pharmacokinetics after oral Posiphen in humans (LC-MS/MS); assay type: in vivo, human; settings: human, in vivo, po; for AUC(0-t): read-out: AUC (0-t)
Protocol: This paper describes data from multiple studies.
Samples were frozen and then stored at −80 °C.
(§1) The detection limit was 0.025 ng/mL.

[2] = Plasma pharmacokinetics after oral Posiphen in Beagle dogs (LC-MS/MS); parameters: species or system dog; settings: dog plasma
Protocol: In rats and dogs, blood samples were centrifuged, and the resultant plasma was separated, and 200 µL (rat) or 400 µL (dog) of plasma was transferred to uniquely labeled pre-chilled polypropylene tubes containing 5 µL (rat) or 10 µL (dog) Dichlorvos spiking solution (nominal concentration of 0.82 mg/mL in MeOH/Water, 20/80, v/v).
as §1

[3] = system: acetylcholinesterase; settings: cited from earlier work
[4] = Plasma pharmacokinetics after oral Posiphen in CD-1 mice (LC-MS/MS); settings: for AUC(0-t) / Cmax / Tmax: po
Protocol: (§2) The animal PKs were taken from multiple GLP toxicology studies, biomarker studies, and efficacy studies. […] Sample size (n) represents the number of animals at each time point of sample collection. […] The dose volume was determined according to animals’ weight collected on the dosing day.
(§3) In mice, blood samples were collected via the saphenous vein or other suitable blood collection site into a microcentrifuge tube containing the anti-coagulant K2-EDTA on wet ice and processed for plasma. For samples collected within the first hour of dosing, ±1 min is acceptable, while for all other timepoints, samples were taken within 5% of the scheduled time and are not considered as protocol deviations. Plasma samples were centrifuged (3200× g for 10 min at 4 °C) within an hour of collection. CSF samples were collected with 3 μL volume per time point, frozen on dry ice, and stored at −60 °C for further analysis. For brain collection in mice, animals were euthanized using CO2 inhalation. Whole brain was collected, washed in cold saline, dried, and homogenized immediately […]. Homogenizing buffer MeOH/15 mM PBS (1:2, v:v) was used at a ratio of 1:9 (1 g of tissue with 9 mL of buffer; the dilution ratio is 10).
(§4) In humans, the bioanalytical method was performed in accordance with current FDA, Industry Guidelines, and OECD Principles. […] The sample analysis was conducted in accordance with current GCP and GLP principles, and the results were presented for pharmacokinetic profiling (Absorption Systems, Exton, PA, USA). Calibration ranges for each analyte ranged from 1000 ng/mL to 1 ng/mL (or ng/g for brain) in plasma, brain, and CSF matrices. The detection limit was 0.025 ng/mL. The following PK parameters were collected for the purpose of this manuscript: maximum concentration (Cmax), time to maximum drug concentration (Tmax), half-life (T1/2), and the Area Under the Curve (AUC).
Blood plasma samples were collected at various time points within the initial 8 h following administration (6 h for humans). Plasma concentrations (ng/mL) were measured over the 8 h observation window to characterize the maximum concentration (Cmax), the time to peak drug concentration (Tmax), the half-life (T1/2), and the Area Under the Curve (AUC).

[5] = in vivo
Protocol: as §2, §3, §4

[6] = clinical; settings: human, in vivo; for Kp: 80 mg/day; for AUC(0-t) / Cmax: po
Protocol: This paper describes data from multiple studies. The healthy volunteers’ data come from the single ascending and multiple ascending dose study, whereas Alzheimer’s and Parkinson’s patients are represented by the MCI NCT01072812 study, ADCS NCT02925650 study, and AD/PD NCT04524351 study. The evaluations are based on a sample size of n = 4 for each time point.
In humans, plasma and lumbar CSF samples were collected via an indwelling catheter over 12 h (at 0, 1, 1.5, 2, 3, 4, 6, 8, and 12 h) initiated at the same time of day, 1 day prior to the start of dosing, to obtain time-dependent baseline control data, and then at the exact same times immediately after the last dose was administered. Samples were frozen and then stored at −80 °C.
as §4

[7] = system: neurotoxic aggregating proteins; settings: cited from earlier work
[8] = both, CD-1, mouse, in vivo, 65 mg/kg
[9] = CD-1, mouse, in vivo, po, 65 mg/kg, Cmax, Table 2, mouse CSF, oral Posiphen

| Compound | Cmax [1] [ng/mL] | AUC(0-t) [1] [ng·h/mL] | Acetylcholinesterase inhibitory (AChEI) activity [3] | concentration at 0.25 h [4, 8] [ng/mL] | concentration at 0.5 h [4, 8] [ng/mL] | concentration at 1 h [4, 8] [ng/mL] | concentration at 1.25 h [4, 8] [ng/mL] | concentration at 1.5 h [4, 8] [ng/mL] | concentration at 2 h [4, 8] [ng/mL] | concentration at 4 h [4, 8] [ng/mL] | concentration at 12 h [4, 8] [ng/mL] | AUC(0-t) [4, 8] [ng·h/mL] | Cmax [4, 8] [ng/mL] | Tmax [4, 8] [h] | Cmax [5, 9] [ng/mL] | Cmax ([5]; CD-1, mouse, po, 65 mg/kg) [ng/mL] | Kp [6] | AUC(0-t) [6] [ng·h/mL] | Cmax [6] [ng/mL] | TINAP activity [7] | also measured |
| --- | --- | --- | --- | --- | --- | --- | --- | --- | --- | --- | --- | --- | --- | --- | --- | --- | --- | --- | --- | --- | --- |
| C[C@]12CCNC1Nc1ccc(OC(=O)Nc3ccccc3)cc12 (stereo partly shown) [N1, N8, N1,N8-norposiphen] | 3.66 | 36.9 | – | – | – | – | – | – | – | – | – | – | – | – | – | – | – | – | – | – | – |
| CN1c2ccc(OC(=O)Nc3ccccc3)cc2[C@@]2(C)CCNC12 (stereo partly shown) [N1, N1-norposiphen] | 24.9 | 213 | has both TINAP and AChEI activities | 350 | 484 | 446 | 554 | 525 | 419 | 83.6 | 0 | 1400 | 554 | 1.25 | 54.5 | 1850 | 0.1 | 26.7 | 2.56 | has both TINAP and AChEI activities | Primary compound in plasma [2]: primary compound; concentration at 8 h [4, 8]: 3.64 ng/mL; Plasma level relative to N8 ([4]; mouse plasma): a fourth; Plasma level relative to Posiphen ([4]; mouse plasma): half; Cmax ([5]; Table 2, mouse CSF, oral Posiphen): 54.4 ng/mL |
| CN1CC[C@]2(C)c3cc(OC(=O)Nc4ccccc4)ccc3NC12 (stereo partly shown) [N8, N8-norposiphen] | 30.4 | 260 | no acetylcholinesterase inhibitory (AChEI) activity | 882 | 1310 | 1560 | 1790 | 1930 | 1830 | 478 | 0 | 5330 | 1930 | 1.5 | 309 | 7290 | 0.17 | 54.9 | 5.08 | have TINAP | Plasma level relative to N1 ([4]; mouse plasma): 3.8 times; half-life [6]: > 12 h |
